According to the NIST ThermoML archive (doi:10.1021/je049672l):
± gives the expanded uncertainty stated by the source.

Conditions: for mass density: Vibrating tube method; for vapor or sublimation pressure: Closed cell (Static) method

CCC [propane]
Fluid (supercritical or subcritical phases)
Conditions | mass density [kg/m3]
300 K, 6496.7 kPa | 505.29 ± 0.37
300 K, 7004.4 kPa | 506.54 ± 0.38
310 K, 1514.4 kPa | 473.96 ± 0.3
310 K, 2018.8 kPa | 475.98 ± 0.31
310 K, 2491.2 kPa | 477.78 ± 0.31
310 K, 3012.9 kPa | 479.7 ± 0.32
310 K, 3515 kPa | 481.48 ± 0.33
310 K, 4040.6 kPa | 483.29 ± 0.33
310 K, 4528.9 kPa | 484.91 ± 0.34
310 K, 5029.4 kPa | 486.52 ± 0.35
310 K, 5529.3 kPa | 488.08 ± 0.36
310 K, 6046.3 kPa | 489.64 ± 0.37
310 K, 6510.1 kPa | 491.02 ± 0.37
310 K, 6991.8 kPa | 492.41 ± 0.38
320 K, 2011.4 kPa | 457.17 ± 0.3
320 K, 2513.8 kPa | 459.66 ± 0.31
320 K, 3002.1 kPa | 461.96 ± 0.31
320 K, 3495.1 kPa | 464.17 ± 0.32
320 K, 4025.8 kPa | 466.44 ± 0.33
320 K, 4519.6 kPa | 468.46 ± 0.34
320 K, 5017.9 kPa | 470.44 ± 0.34
320 K, 5536.8 kPa | 472.4 ± 0.35
320 K, 6024.8 kPa | 474.19 ± 0.36
320 K, 6523.4 kPa | 475.95 ± 0.37
320 K, 7008.9 kPa | 477.63 ± 0.37
330 K, 2033.9 kPa | 435.23 ± 0.3
330 K, 2537.4 kPa | 438.74 ± 0.3
330 K, 3032 kPa | 441.91 ± 0.31
330 K, 3546.3 kPa | 445 ± 0.31
330 K, 3909.1 kPa | 447.05 ± 0.32
330 K, 3995.4 kPa | 447.53 ± 0.32
330 K, 4495.8 kPa | 450.17 ± 0.33
330 K, 4996.1 kPa | 452.66 ± 0.33
330 K, 5488.6 kPa | 455.01 ± 0.34
330 K, 6010.6 kPa | 457.38 ± 0.35
330 K, 6499.8 kPa | 459.5 ± 0.36
330 K, 6985.1 kPa | 461.52 ± 0.37
340 K, 3024.2 kPa | 417.87 ± 0.3
340 K, 3507.8 kPa | 422.07 ± 0.31
340 K, 4014 kPa | 426.05 ± 0.31
340 K, 4501.8 kPa | 429.56 ± 0.32
340 K, 5027.1 kPa | 433.06 ± 0.33
340 K, 5516.7 kPa | 436.1 ± 0.33
340 K, 5985 kPa | 438.83 ± 0.34
340 K, 6494.7 kPa | 441.64 ± 0.35
340 K, 6964.1 kPa | 444.1 ± 0.36
350 K, 3541.2 kPa | 393.49 ± 0.31
350 K, 4011.9 kPa | 399.51 ± 0.3
350 K, 4505.9 kPa | 404.94 ± 0.31
350 K, 5024.8 kPa | 409.94 ± 0.32
350 K, 5521.6 kPa | 414.24 ± 0.33
350 K, 6027.1 kPa | 418.22 ± 0.33
350 K, 6491.4 kPa | 421.59 ± 0.34
350 K, 6978.1 kPa | 424.88 ± 0.35
360 K, 4043.5 kPa | 362.08 ± 0.31
360 K, 4527.8 kPa | 372.52 ± 0.3
360 K, 5043 kPa | 380.99 ± 0.31
360 K, 5524.7 kPa | 387.51 ± 0.31
360 K, 6048.5 kPa | 393.63 ± 0.32
360 K, 6529.9 kPa | 398.56 ± 0.33
360 K, 6953.8 kPa | 402.5 ± 0.34
370 K, 779.8 kPa | 11.91 ± 0.2
370 K, 1089.1 kPa | 17.21 ± 0.2
370 K, 1515.9 kPa | 25.15 ± 0.2
370 K, 2081.6 kPa | 37.08 ± 0.21
370 K, 2783.7 kPa | 55.36 ± 0.22
370 K, 4325.4 kPa | 287.46 ± 0.3
370 K, 4521.7 kPa | 312.65 ± 0.3
370 K, 4996.9 kPa | 336.94 ± 0.29
370 K, 5527.4 kPa | 352.01 ± 0.3
370 K, 5998 kPa | 361.65 ± 0.31
370 K, 6504.8 kPa | 369.98 ± 0.32
370 K, 7066.4 kPa | 377.66 ± 0.33
380 K, 813.8 kPa | 12.27 ± 0.2
380 K, 1223.8 kPa | 19.12 ± 0.2
380 K, 1564.3 kPa | 25.22 ± 0.2
380 K, 2032 kPa | 34.39 ± 0.21
380 K, 2630.4 kPa | 47.9 ± 0.21
380 K, 3340.1 kPa | 67.96 ± 0.22
380 K, 4059 kPa | 97.16 ± 0.24
380 K, 4059.9 kPa | 97.18 ± 0.24
380 K, 4060.6 kPa | 97.22 ± 0.24
380 K, 4556.5 kPa | 131.82 ± 0.29
380 K, 5335.4 kPa | 273.87 ± 0.34
380 K, 5530.3 kPa | 291.64 ± 0.29
380 K, 6044.5 kPa | 318.37 ± 0.3
380 K, 6541.5 kPa | 333.99 ± 0.3
380 K, 7012.1 kPa | 344.89 ± 0.31

Liquid
Conditions | mass density [kg/m3] | vapor or sublimation pressure [kPa]
300 K | 489.48 ± 0.29 | 997.6 ± 1.6
310 K | 472.96 ± 0.28 | 1272.1 ± 2
320 K | 455 ± 0.28 | 1600.7 ± 2.5
330 K | 434.9 ± 0.27 | 1988.8 ± 3.1
340 K | 411.92 ± 0.27 | 2429.7 ± 3.8
350 K | 384.39 ± 0.26 | 2948 ± 4.6
360 K | 347.97 ± 0.25 | 3552.2 ± 5.5
